Experimental data: US8673856B2 (Anygen Co., Ltd., priority 2006, dated 2014)

System: Sprague-Dawley male rats
Details: rat, in vivo

SMILES	50% withdrawal threshold, mechanical stimulus
CC[C@H](C)[C@@H]1NC(=O)[C@H](CCCNC(=N)N)NC(=O)[C@H](CO)NC(=O)[C@@H]2CSSC[C@@H]3NC(=O)[C@H](CO)NC(=O)CNC(=O)[C@H]([C@@H](C)O)NC(=O)[C@H](CSSC[C@H](N)C(=O)N[C@@H](CCCCN)C(=O)NCC(=O)N[C@@H]([C@@H](C)O)C(=O)NCC(=O)N[C@@H](CCCCN)C(=O)N[C@@H](CO)C(=O)N2)NC(=O)[C@H](CSSC[C@@H](C(N)=O)NC(=O)[C@H](CCCCN)NC(=O)CNC(=O)[C@H](CO)NC(=O)[C@H](CCCNC(=N)N)NC3=O)NC(=O)[C@H](CC(N)=O)NC(=O)[C@H](Cc2ccc(O)cc2)NC(=O)[C@H](C)NC1=O [FVIA, CKGTGKSCSRIAYNCCTGSCRSGKC-NH2]	increase in 50% withdrawal threshold
CSCC[C@@H]1NC(=O)[C@H](CC(C)C)NC(=O)[C@H](CCCNC(=N)N)NC(=O)[C@H](CO)NC(=O)[C@@H]2CSSC[C@@H]3NC(=O)[C@H](CO)NC(=O)CNC(=O)[C@H]([C@@H](C)O)NC(=O)[C@H](CSSC[C@H](N)C(=O)N[C@@H](CCCCN)C(=O)NCC(=O)N[C@@H](CCCCN)C(=O)NCC(=O)N[C@@H](C)C(=O)N[C@@H](CCCCN)C(=O)N2)NC(=O)[C@H](CSSC[C@@H](C(N)=O)NC(=O)[C@H](CCCCN)NC(=O)CNC(=O)[C@H](CO)NC(=O)[C@H](CCCNC(=N)N)NC3=O)NC(=O)[C@H](CC(=O)O)NC(=O)[C@H](Cc2ccc(O)cc2)NC1=O [MVIIA, CKGKGAKCSRLMYDCCTGSCRSGKC-NH2]	increase in 50% withdrawal threshold
